Results as given in patent US20110177156A1, “Sterol-Modified Amphiphilic Lipids” (priority 2007, published 2011).

Key:
[1] = SML:PC:AmB=2:2:1 (mole) liposomes, stored at 4° C.
Procedure: First, the chloroform solution of SML/diacyl PC lipids mixture at given ratio were evaporated, and lipid film was placed under high vacuum overnight. Given amount of amphotericin B DMSO solution (20 mg/mL) was then added to the lipid film followed by the addition of pH 7.4 PBS. The mixture was sonicated under argon at 60° C. for 1 hour. The mixture was then dialyzed against pH 7.4 PBS. The yellow solution obtained was sterilized by filtering through 220 nm membrane. Products were stored at 4° C. for future study.

[2] = Cholesterol exchange from donor liposomes to POPC acceptor liposomes at 37° C.; type: physicochemical
Procedure: Unilamellar liposomes were prepared by extrusion method. […] Specifically, the three donor liposomes were formulated at the following molar ratios: 1) […] (50/40/10), 2) […] (25/65/10), 3) Chol/DPPC/DPPG (40/50/10). Neutral 1-palmitoyl-2-oleoyl-sn-glycero-3-phosphocholine (POPC) liposome was used as the acceptor. After extrusion, the diameter of the donor liposomes was around 100 nm, and 140 nm for the acceptor liposome. For the exchange experiments, 1 mL donor liposomes (10 mM) and 1 mL acceptor liposomes (100 mM, 10 fold) were warmed at 37° C. first, then mixed and incubated at 37° C. An aliquot (250 μL) of mixture was sampled at given time point and applied to a small (ca. 1 cm in length) anion exchange column (Q-Sepharose XL). The column was pretreated with 0.1 mL 10 mM POPC before the loading of the exchange sample to reduce the nonspecific binding of the neutral liposome. The column was eluted with 1 mL 10 mM NaCl, 10 mM HEPES pH 7.4 buffer. The eluate was lyophilized and analyzed by the cholesterol assay to quantify the amount of cholesterol exchanged.

| Compound | stability of formulation at 4° C. [1] | exchange of cholesterol out of donor liposomes ([2]; PChcPC/DPPC/DPPG (50/40/10), DChcPC/DPPC/DPPG (25/65/10), POPC acceptor) | half time for cholesterol exchange ([2]; free cholesterol in a conventional liposome (Chol/DPPC/DPPG 40/50/10)) [h] |
| --- | --- | --- | --- |
| CCCCCCCCCCCCCCOCC(COP(=O)([O-])OCC[N+](C)(C)C)OC(=O)OC1CCC2(C)C(=CCC3C2CCC2(C)C(C(C)CCCC(C)C)CCC32)C1 (racemic) [SML4c, 1-Myristyl-2-cholesterylcarbonoyl-rac-glycero-3-phosphocholine] | more than one year |  |  |
| CCCCCCCCCCCCCCCC(=O)OCC(COP(=O)([O-])OCC[N+](C)(C)C)OC(=O)OC1CCC2(C)C(=CCC3C2CCC2(C)C(C(C)CCCC(C)C)CCC32)C1 (stereo not drawn) [SML5b, 1-Palmitoyl-2-cholesterylcarbonoyl-sn-glycero-3-phosphocholine] | more than one year | very little or no detectable exchange of cholesterol |  |
| CCCCCCCCCCCCCCCCOCC(COP(=O)([O-])OCC[N+](C)(C)C)OC(=O)OC1CCC2(C)C(=CCC3C2CCC2(C)C(C(C)CCCC(C)C)CCC32)C1 (racemic) [SML4b, 1-Palmityl-2-cholesterylcarbonoyl-rac-glycero-3-phosphocholine] | more than one year |  |  |
| CCCCCCCCCCCCCCCCCC(=O)OCC(COP(=O)([O-])OCC[N+](C)(C)C)OC(=O)OC1CCC2(C)C(=CCC3C2CCC2(C)C(C(C)CCCC(C)C)CCC32)C1 (stereo not drawn) [SML5a, 1-Stearoyl-2-cholesterylcarbonoyl-sn-glycero-3-phosphocholine] | more than one year |  |  |
| CC(C)CCC[C@@H](C)[C@H]1CC[C@H]2[C@@H]3CC=C4C[C@@H](O)CC[C@]4(C)[C@H]3CC[C@]12C [free cholesterol, cholesterol, reference compound] |  |  | ~2 |
